Measurements taken from ChEMBL document CHEMBL1201862, “PubChem BioAssay data set” (2004).
Each block holds one molecule with its values, some of them ahead of it. Calls of active or inactive are those of the source.

How the values were obtained:
[1] = target: T1, High affinity choline transporter 1 (Homo sapiens, UniProt Q9GZV3); experiment: human choline transporter blockers, potency – cell-based, 5-point CRC, membrane potential dye, dose response (AID 504840); format: functional
T1 sequence (Q9GZV3 whole entry): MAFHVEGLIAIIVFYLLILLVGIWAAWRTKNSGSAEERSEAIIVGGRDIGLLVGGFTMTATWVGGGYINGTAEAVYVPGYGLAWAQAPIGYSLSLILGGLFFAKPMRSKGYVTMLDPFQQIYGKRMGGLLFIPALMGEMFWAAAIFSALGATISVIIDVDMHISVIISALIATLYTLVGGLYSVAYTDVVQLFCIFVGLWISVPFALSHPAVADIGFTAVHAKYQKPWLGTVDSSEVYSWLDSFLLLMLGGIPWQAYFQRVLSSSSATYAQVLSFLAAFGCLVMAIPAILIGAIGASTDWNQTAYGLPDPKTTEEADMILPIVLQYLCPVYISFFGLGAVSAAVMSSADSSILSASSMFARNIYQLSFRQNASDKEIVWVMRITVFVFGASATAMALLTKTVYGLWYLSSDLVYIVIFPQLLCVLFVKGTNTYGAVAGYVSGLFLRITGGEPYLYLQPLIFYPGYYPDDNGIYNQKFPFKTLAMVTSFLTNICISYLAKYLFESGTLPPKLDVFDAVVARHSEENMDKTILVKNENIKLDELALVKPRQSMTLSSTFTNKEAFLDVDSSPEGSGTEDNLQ

[2] = target: T1, High affinity choline transporter 1; experiment: human choline transporter blockers, potency – cell-based, 10-point CRC, membrane potential dye, dose response (AID 588401); format: functional;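 further: membrane potential dye fluorescence of choline-evoked depolarization via CHT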
[3] = target: DNA repair and recombination protein RAD54-like (Homo sapiens, UniProt Q92698); experiment: RAD54 Holliday junction migration blockers – biochemical, fluorescence, cherry-picked samples, dose series, confirmation (AID 651657); format: functional
Cytochrome P450 2C9 = Cytochrome P450 2C9 (Homo sapiens, UniProt P11712)
Cytochrome P450 3A4 = Cytochrome P450 3A4 (Homo sapiens, UniProt P08684);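 further: CYP3A4 tested as one member of a cytochrome P450 panel screen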
Cytochrome P450 2C19 = Cytochrome P450 2C19 (Homo sapiens, UniProt P33261); experiment: Cytochrome panel assay with activity outcomes. Panel member name: p450-cyp2c19 Compounds with AC50 equal or less than 10 uM are considered active; format: functional; details: read-out: AC50
[4] = target: Photoreceptor-specific nuclear receptor (Homo sapiens, UniProt Q9Y5X4); format: functional, cell-based;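 further: CHO-S cells with Gal4-NCOR and VP16-NR2E3 two-hybrid luciferase reporter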
SN12K1 = experiment: cells; format: functional; details: Homo sapiens
P388 = experiment: cells; format: functional; details: Mus musculus
P388/ADR = experiment: cells; format: functional; details: Mus musculus
[5] = target: T2, Sentrin-specific protease 1 (Homo sapiens, UniProt Q9P0U3); experiment: SENP1 catalytic domain blockers, concentration series – biochemical, kinetic FRET, dose response (AID 651697); format: functional; details: read-out: IC50_Mean
[6] = target: T2, Sentrin-specific protease 1; experiment: Dose response confirmation of small molecule inhibitors of the catalytic domain of the SUMO protease, SENP1 in a FRET assay.; format: functional; details: read-out: IC50_Mean

T2 sequence (Q9P0U3 whole entry, the tested form may be a part): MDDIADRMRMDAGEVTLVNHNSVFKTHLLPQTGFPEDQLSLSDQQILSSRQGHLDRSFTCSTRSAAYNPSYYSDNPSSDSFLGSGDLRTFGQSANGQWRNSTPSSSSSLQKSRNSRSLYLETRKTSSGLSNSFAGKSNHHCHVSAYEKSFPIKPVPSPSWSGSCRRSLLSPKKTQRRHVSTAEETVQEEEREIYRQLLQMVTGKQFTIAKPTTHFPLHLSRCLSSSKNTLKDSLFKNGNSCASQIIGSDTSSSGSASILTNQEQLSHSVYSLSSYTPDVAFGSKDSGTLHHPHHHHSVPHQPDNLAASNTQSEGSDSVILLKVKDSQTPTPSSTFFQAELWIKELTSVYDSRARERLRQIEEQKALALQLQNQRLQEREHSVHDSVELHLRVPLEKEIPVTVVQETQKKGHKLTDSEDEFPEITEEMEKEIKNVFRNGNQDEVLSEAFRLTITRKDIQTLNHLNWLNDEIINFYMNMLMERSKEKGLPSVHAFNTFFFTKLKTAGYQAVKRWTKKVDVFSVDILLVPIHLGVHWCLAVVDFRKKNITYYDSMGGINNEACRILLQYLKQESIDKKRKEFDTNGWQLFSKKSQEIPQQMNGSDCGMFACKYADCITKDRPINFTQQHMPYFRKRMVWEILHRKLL
Sequence of Cytochrome P450 2C9 (P11712 whole entry): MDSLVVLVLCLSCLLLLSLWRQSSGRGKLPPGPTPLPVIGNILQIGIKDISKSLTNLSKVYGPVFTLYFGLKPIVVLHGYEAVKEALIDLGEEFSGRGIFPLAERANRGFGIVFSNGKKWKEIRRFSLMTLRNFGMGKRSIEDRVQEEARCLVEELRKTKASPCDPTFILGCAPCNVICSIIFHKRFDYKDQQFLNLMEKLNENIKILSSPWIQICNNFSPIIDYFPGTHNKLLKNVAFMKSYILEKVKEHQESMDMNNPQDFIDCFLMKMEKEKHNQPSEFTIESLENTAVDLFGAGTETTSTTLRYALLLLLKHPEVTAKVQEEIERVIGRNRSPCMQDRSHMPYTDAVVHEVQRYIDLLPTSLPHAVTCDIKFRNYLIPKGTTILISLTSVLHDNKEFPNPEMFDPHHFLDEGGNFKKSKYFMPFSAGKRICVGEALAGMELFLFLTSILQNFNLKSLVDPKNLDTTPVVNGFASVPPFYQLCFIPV
Sequence of Cytochrome P450 3A4 (P08684 whole entry): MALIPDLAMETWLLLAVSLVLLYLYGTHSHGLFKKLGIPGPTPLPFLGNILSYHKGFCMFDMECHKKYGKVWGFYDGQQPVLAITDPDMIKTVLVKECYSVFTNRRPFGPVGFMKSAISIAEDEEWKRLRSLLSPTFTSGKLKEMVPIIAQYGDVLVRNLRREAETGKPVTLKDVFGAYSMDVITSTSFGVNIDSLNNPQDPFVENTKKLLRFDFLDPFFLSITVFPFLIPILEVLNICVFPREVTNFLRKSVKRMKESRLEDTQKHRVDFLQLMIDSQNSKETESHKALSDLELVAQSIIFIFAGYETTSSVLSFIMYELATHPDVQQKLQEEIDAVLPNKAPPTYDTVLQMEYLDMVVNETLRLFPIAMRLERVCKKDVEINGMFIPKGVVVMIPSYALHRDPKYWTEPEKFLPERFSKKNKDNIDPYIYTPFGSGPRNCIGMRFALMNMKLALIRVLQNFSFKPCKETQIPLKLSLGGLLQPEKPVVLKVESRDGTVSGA
Sequence of DNA repair and recombination protein RAD54-like (Q92698 whole entry): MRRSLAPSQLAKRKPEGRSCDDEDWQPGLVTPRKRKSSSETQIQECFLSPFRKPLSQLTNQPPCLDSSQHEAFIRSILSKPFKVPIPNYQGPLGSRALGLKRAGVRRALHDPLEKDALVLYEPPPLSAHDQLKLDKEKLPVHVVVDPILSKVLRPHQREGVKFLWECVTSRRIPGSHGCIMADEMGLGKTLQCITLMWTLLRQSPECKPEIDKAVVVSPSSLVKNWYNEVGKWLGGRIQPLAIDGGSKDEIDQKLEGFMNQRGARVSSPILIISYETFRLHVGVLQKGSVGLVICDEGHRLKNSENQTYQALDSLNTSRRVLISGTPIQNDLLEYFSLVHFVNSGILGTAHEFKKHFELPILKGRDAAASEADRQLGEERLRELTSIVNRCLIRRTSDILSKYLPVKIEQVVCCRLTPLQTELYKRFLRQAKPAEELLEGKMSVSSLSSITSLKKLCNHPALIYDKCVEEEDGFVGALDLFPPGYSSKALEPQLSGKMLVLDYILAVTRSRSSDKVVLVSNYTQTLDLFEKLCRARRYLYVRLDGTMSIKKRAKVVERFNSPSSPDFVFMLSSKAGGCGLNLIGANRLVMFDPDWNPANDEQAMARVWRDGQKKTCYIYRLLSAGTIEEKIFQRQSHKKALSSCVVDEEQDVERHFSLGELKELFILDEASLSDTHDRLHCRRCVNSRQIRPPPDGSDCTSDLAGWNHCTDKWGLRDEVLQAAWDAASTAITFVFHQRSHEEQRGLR
Sequence of Cytochrome P450 2C19 (P33261 whole entry, the tested form may be a part): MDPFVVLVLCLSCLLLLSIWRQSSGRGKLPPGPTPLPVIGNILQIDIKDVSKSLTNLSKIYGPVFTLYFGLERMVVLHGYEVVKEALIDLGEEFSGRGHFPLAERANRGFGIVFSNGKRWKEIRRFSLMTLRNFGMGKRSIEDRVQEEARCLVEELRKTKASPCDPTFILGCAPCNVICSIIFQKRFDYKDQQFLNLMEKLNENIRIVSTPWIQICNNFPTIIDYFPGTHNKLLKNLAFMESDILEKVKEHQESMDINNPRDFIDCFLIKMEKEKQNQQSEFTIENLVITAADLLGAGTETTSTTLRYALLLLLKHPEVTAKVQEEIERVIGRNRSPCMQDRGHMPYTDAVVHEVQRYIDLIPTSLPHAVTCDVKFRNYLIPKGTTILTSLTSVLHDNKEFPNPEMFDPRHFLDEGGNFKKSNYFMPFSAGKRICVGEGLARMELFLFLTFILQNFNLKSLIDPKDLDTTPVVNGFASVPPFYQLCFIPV
Sequence of Photoreceptor-specific nuclear receptor (Q9Y5X4 whole entry, the tested form may be a part): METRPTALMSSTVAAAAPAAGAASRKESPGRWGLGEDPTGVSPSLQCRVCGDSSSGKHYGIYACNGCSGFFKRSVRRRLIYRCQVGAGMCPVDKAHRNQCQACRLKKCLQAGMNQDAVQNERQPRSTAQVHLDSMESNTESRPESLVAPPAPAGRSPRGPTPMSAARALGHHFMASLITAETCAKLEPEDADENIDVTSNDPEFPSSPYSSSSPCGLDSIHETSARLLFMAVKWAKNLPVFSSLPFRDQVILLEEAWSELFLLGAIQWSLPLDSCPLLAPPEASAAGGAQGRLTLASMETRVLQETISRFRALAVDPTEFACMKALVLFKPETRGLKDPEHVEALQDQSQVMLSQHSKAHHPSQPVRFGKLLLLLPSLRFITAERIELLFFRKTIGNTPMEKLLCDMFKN

Compound: O=[N+]([O-])/C(C(=C(Cl)Cl)N1CCN(Cc2ccccc2)CC1)=C1\NCCN1Cc1ccc(Cl)nc1
IC50 [1]: 6.15 µM (active)
IC50 [2]: 5.39 µM (active)

Compound: O=c1cc(N2CCN(c3ccccc3)CC2)[nH]c(=O)n1C1CCCCC1
AC50 (Cytochrome P450 2C9): 15.8 µM (inconclusive)
AC50 (Cytochrome P450 3A4): 6.31 µM (inconclusive)
AC50 (Cytochrome P450 2C19): 3.16 µM (inconclusive)
IC50 [4]: 0.511 µM (active)

Compound: Nc1ncnc2c1ncn2C1CCC(CO)O1 (configuration not stated)
GI50 (SN12K1): > 62.4 µM (inactive)
GI50 (P388): 98.6 µM (inactive)
GI50 (P388/ADR): 69.5 µM (inactive)

Next, values leading:

AC50 [3]: 100 µM (inactive)
Compound: COc1cccc(-c2nc(N3CCN(Cc4ccccc4)CC3)c3ccccc3n2)c1O

IC50 [5]: 12.5 µM (active)
IC50 [6]: 5.9 µM (active)
Compound: CCn1c(/C=C/c2cc(Br)ccc2O)nc2ccccc2c1=O
